Results as given in patent US12545673B2, “Imidazopyridine derivative and pharmaceutical composition comprising same as active ingredient” (TSD LIFE SCIENCES CO., LTD., priority 2019, dated 2026).

Key:
MLK3 = MLK3 (Homo sapiens (Human), UniProt Q16584); experiment: Evaluation of inhibitory activity of enzyme units, MLK3 ([γ-33P]-ATP filter assay); conditions: read-out: IC50(nM) MLK3
[1] = test system: acute lymphoblastic leukemia cell line Jurkat; experiment: Cancer cell proliferation inhibitory activity evaluation 2 (CCK-8), Jurkat; format: cell-based; conditions: Homo sapiens, 10 μM, 72 hours, CCK-8, read-out: Cancer cell proliferation inhibitory activity Jurkat
Method: (§1) In order to identify whether the compounds have anticancer activity, the acute myeloid leukemia cell line U937, the acute lymphoblastic leukemia cell line Jurkat, the gastric cancer cell lines AGS, […], and the human lung cancer cell line A549 were used. The cell line was cultured using RPMI-1640 medium (U937, Jurkat, AGS, A549) or DMEM (Hs746T) medium containing 10% fetal bovine serum. Welgene products were used as the medium, and hyclone products were used for fetal bovine serum, and 1% of antibiotics for cell culture from Gibco were used as the culture medium.

[2] = test system: acute myeloid leukemia cell line U937; experiment: Cancer cell proliferation inhibitory activity evaluation 2 (CCK-8), U937; format: cell-based; conditions: Homo sapiens, U-937; 10 μM, 72 hours, CCK-8 (Table 3); read-out: Cancer cell proliferation inhibitory activity U937
Method: as §1

[3] = test system: gastric cancer cell line AGS; experiment: Cancer cell proliferation inhibitory activity evaluation 2 (CCK-8), AGS; format: cell-based; conditions: Homo sapiens; 10 μM, 72 hours, CCK-8; read-out: Cancer cell proliferation inhibitory activity AGS
Method: as §1

MLK1 = MLK1 (Homo sapiens (Human), UniProt P80192); experiment: Evaluation of inhibitory activity of enzyme units, MLK1 ([γ-33P]-ATP filter assay); format: biochemical
Chain of MLK1 (P80192 whole entry, looked up): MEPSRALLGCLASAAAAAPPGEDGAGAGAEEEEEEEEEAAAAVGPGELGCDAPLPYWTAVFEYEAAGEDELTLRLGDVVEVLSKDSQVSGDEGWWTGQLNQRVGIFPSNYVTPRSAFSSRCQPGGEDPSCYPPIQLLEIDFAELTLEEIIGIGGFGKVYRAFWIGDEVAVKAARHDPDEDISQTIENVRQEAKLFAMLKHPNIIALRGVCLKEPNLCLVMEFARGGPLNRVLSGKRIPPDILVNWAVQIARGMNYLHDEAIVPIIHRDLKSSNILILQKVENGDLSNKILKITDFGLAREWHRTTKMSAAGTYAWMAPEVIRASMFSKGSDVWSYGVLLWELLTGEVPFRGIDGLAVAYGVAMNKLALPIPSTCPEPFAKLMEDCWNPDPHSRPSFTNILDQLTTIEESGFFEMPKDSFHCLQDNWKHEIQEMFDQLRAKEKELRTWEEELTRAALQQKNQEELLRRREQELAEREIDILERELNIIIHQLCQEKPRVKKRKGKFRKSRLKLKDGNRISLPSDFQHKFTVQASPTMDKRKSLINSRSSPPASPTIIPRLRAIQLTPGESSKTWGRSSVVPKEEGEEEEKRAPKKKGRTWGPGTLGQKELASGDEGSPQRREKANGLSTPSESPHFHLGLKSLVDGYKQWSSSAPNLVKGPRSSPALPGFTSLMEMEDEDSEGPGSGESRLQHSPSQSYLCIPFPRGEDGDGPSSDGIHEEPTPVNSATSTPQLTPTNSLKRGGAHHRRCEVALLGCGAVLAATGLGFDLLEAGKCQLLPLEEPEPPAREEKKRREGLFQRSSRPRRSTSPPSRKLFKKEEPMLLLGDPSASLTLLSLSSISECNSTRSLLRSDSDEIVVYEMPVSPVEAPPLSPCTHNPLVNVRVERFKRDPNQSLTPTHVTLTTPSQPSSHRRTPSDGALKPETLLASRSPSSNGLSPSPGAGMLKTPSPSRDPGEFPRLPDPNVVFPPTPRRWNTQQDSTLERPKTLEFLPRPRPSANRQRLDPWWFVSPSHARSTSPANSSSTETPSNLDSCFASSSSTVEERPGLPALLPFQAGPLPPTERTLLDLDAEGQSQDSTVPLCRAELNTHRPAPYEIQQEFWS

Chain of MLK3 (Q16584 whole entry, looked up): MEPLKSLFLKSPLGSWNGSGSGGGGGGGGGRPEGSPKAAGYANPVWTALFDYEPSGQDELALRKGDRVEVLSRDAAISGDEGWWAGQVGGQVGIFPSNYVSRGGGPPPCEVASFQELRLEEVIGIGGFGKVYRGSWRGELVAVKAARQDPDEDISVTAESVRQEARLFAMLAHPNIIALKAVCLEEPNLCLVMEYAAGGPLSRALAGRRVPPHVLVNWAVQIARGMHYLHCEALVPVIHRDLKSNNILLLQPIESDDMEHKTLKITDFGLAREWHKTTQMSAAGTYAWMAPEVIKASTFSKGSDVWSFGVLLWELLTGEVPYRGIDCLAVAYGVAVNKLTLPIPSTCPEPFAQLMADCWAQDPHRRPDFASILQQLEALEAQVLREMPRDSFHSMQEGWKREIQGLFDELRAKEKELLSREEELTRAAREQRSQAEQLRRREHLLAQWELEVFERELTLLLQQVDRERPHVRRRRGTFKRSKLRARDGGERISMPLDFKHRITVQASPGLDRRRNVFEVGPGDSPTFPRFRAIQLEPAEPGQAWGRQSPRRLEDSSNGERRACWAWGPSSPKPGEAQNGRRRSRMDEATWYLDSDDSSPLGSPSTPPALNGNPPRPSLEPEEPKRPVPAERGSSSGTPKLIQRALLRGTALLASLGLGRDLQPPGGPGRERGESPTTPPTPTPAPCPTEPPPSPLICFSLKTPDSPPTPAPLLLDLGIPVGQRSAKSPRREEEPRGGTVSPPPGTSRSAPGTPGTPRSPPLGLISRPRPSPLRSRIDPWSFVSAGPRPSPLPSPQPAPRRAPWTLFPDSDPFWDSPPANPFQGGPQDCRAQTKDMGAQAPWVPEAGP

Compound | IC50 (MLK3) [nM] | inhibition at 10 µM [1] [%] | inhibition at 10 µM [2] [%] | inhibition at 10 µM [3] [%] | IC50 (MLK1) [nM]
Cc1cc(NS(C)(=O)=O)ccc1-n1c(C)cc(-c2nc3c(Nc4cccc(S(N)(=O)=O)c4)c(Br)cnc3[nH]2)c1C [Example 32, 3-((6-bromo-2-(2,5-dimethyl-1-(2-methyl-4-(methylsulfonamido)phenyl)-1H-pyrrol-3-yl)-3H-imidazo[4,5-b]pyridine-7-yl)amino)benzenesulfonamide] | 32 | 10 to 50 | 10 to 50 | 10 to 50 | 
Cc1cc(-c2nc3c(Nc4cccc(S(N)(=O)=O)c4)c(Br)cnc3[nH]2)c(C)n1-c1ccc2c(c1)OCO2 [Example 41, 3-((2-(1-(benzo[d][1,3]dioxole-5-yl)-2,5-dimethyl-1H-pyrrol-3-yl)-6-bromo-3H-imidazo[4,5-b]pyridine-7-yl)amino)benzenesulfonamide] | 70 | 10 to 50 | 10 to 50 | 10 to 50 | 
CCS(=O)(=O)N1CC[C@H](Nc2c(Br)cnc3nc(-c4cc(C)n(-c5cccc(NC(=O)CN(C)C)c5C)c4C)[nH]c23)C1 [Example 84, N-(3-(3-(6-bromo-7-(((S)-1-(ethylsulfonyl)pyrolidine-3-yl)amino)-1H-imidazo[4,5-b]pyridine-2-yl)-2,5-dimethyl-1H-pyrrol-1-yl)-2-methylphenyl)-2-(dimethylamino) acetamide] | 8 |  |  |  | 
CCS(=O)(=O)N1CC[C@H](Nc2c(Br)cnc3nc(-c4cc(C)n(-c5cccc(C(=O)NCCN(C)C)c5C)c4C)[nH]c23)C1 [Example 82, 3-(3-(6-bromo-7-(((S)-1-(ethylsulfonyl)pyrrolidine-3-yl)amino)-1H-imidazo[4,5-b]pyridine-2-yl)-2,5-dimethyl-1H-pyrrol-1-yl)-N-(2-(dimethylamino)ethyl)-2-methylbenzamide] | 14 |  |  |  | 
CCS(=O)(=O)N1CC[C@H](Nc2c(Br)cnc3nc(-c4cc(C)n(-c5cccc(NC(=O)CN6CCOCC6)c5C)c4C)[nH]c23)C1 [Example 85, N-(3-(3-(6-bromo-7-(((S)-1-(ethylsulfonyl)pyrrolidine-3-yl)amino)-1H-imidazo[4,5-b]pyridine-2-yl)-2,5-dimethyl-1H-pyrrol-1-yl)-2-methylphenyl)-2-morpholinoacetamide] | 11 |  |  |  | 
CCS(=O)(=O)N1CC[C@H](Nc2c(Br)cnc3[nH]c(-c4cc(C)n(-c5ccc(C(=O)NCCN(C)C)cc5)c4C)nc23)C1 [Example 62, (S)-4-(3-(6-bromo-7-((1-(ethylsulfonyl)pyrrolidine-3-yl)amino)-3H-imidazo[4,5-b]pyridine-2-yl)-2,5-dimethyl-1H-pyrrol-1-yl)-N-(2-(dimethylamino)ethyl)benzamide] | 17 |  |  |  | 
CCS(=O)(=O)N1CC[C@H](Nc2ccnc3[nH]c(-c4cc(C)n(-c5cc(NS(C)(=O)=O)ccc5C)c4C)nc23)C1 [Example 50, N-(3-(3-(7-(((S)-1-(ethylsulfonyl)pyrrolidine-3-yl)amino)-3H-imidazo[4,5-b]pyridine-2-yl)-2,5-dimethyl-1H-pyrrol-1-yl)-4-methylphenyl) methanesulfonamide] | > 30000 |  |  |  | > 30000
Cc1cc(-c2nc3c(Nc4cccc(S(N)(=O)=O)c4)c(Br)cnc3[nH]2)c(C)n1-c1cccc(S(=O)(=O)N2CCOCC2)c1 [Example 30, 3-((6-bromo-2-(2,5-dimethyl-1-(3-(morpholinosulfonyl)phenyl)-1H-pyrrol-3-yl)-3H-imidazo[4,5-b]pyridine-7-yl)amino)benzenesulfonamide] |  | 10 to 50 | < 10 | 10 to 50 | 
CCS(=O)(=O)N1CC[C@H](Nc2c(Br)cnc3nc(-c4cc(C)n(-c5cccc(NC(=O)CCN(C)C)c5C)c4C)[nH]c23)C1 [Example 86, N-(3-(3-(6-bromo-7-(((S)-1-(ethylsulfonyl)pyrrolidine-3-yl)amino)-1H-imidazo[4,5-b]pyridine-2-yl)-2,5-dimethyl-1H-pyrrol-1-yl)-2-methylphenyl)-3-(dimethylamino) propanamide] | 7 |  |  |  | 15
Cc1cc(-c2nc3c(Nc4cccc(S(N)(=O)=O)c4)c(Br)cnc3[nH]2)c(C)n1-c1cccc(C(=O)N2CCOCC2)c1 [Example 28, 3-((6-bromo-2-(2,5-dimethyl-1-(3-(morpholine-4-carbonyl)phenyl)-1H-pyrrol-3-yl)-3H-imidazo[4,5-b]pyridine-7-yl)amino)benzenesulfonamide] | 57 | 10 to 50 | < 10 | 10 to 50 | 
Cc1cc(-c2nc3c(Nc4cccc(S(N)(=O)=O)c4)c(Br)cnc3[nH]2)c(C)n1-c1ccc(S(=O)(=O)N2CCOCC2)cc1 [Example 29, 3-((6-bromo-2-(2,5-dimethyl-1-(4-(morpholinosulfonyl)phenyl)-1H-pyrrol-3-yl)-3H-imidazo[4,5-b]pyridine-7-yl)amino)benzenesulfonamide] | 25 | 10 to 50 | < 10 | 10 to 50 | 
CCS(=O)(=O)N1CC[C@H](Nc2c(Br)cnc3[nH]c(-c4cc(C)n(-c5ccc(C(=O)N6CCN(C)CC6)cc5C)c4C)nc23)C1 [Example 97, (4-(3-(6-bromo-7-(((S)-1-(ethylsulfonyl)pyrrolidine-3-yl)amino)-3H-imidazo[4,5-b]pyridine-2-yl)-2,5-dimethyl-1H-pyrrol-1-yl)-3-methylphenyl) (4-methylpiperazine-1-yl) methanone] | 20 |  |  |  | 
CCS(=O)(=O)N1CC[C@H](Nc2c(Br)cnc3nc(-c4cc(C)n(-c5cc(C(=O)N6CCN(C)CC6)ccc5C)c4C)[nH]c23)C1 [Example 92, (3-(3-(6-bromo-7-(((S)-1-(ethylsulfonyl)pyrrolidine-3-yl)amino)-1H-imidazo[4,5-b]pyridine-2-yl)-2,5-dimethyl-1H-pyrrol-1-yl)-4-methylphenyl) (4-methylpiperazine-1-yl) methanone] | 26 |  |  |  | 
Cc1c(NS(C)(=O)=O)cccc1-n1c(C)cc(-c2nc3c(Nc4cccc(S(N)(=O)=O)c4)c(Br)cnc3[nH]2)c1C [Example 34, 3-((6-bromo-2-(2,5-dimethyl-1-(2-methyl-3-(methylsulfonamido)phenyl)-1H-pyrrol-3-yl)-3H-imidazo[4,5-b]pyridine-7-yl)amino)benzenesulfonamide] | 41 | 10 to 50 | 10 to 50 | 10 to 50 | 
CCS(=O)(=O)N1CC[C@H](Nc2c(Br)cnc3[nH]c(-c4cc(C)n(-c5ccc(S(=O)(=O)N6CCOCC6)cc5)c4C)nc23)C1 [Example 10, (S)-6-bromo-2-(2,5-dimethyl-1-(4-(morpholinosulfonyl)phenyl)-1H-pyrrol-3-yl)-N-(1-(ethylsulfonyl)pyrrolidine-3-yl)-3H-imidazo[4,5-b]pyridine-7-amine] | 7 | > 50 | 10 to 50 | 10 to 50 | 
COCCOc1cccc(-n2c(C)cc(-c3nc4ncc(Br)c(Nc5cccc(S(N)(=O)=O)c5)c4[nH]3)c2C)c1 [Example 42, 3-((6-bromo-2-(1-(3-(2-methoxyethoxy)phenyl)-2,5-dimethyl-1H-pyrrol-3-yl)-1H-imidazo[4,5-b]pyridine-7-yl)amino)benzenesulfonamide] | 83 | > 50 | 10 to 50 | > 50 | 
CCS(=O)(=O)N1CC[C@H](Nc2c(Br)cnc3[nH]c(-c4cc(C)n(-c5ccc(C(=O)N(C)CCN(C)C)cc5)c4C)nc23)C1 [Example 63, (S)-4-(3-(6-bromo-7-((1-(ethylsulfonyl)pyrrolidine-3-yl)amino)-3H-imidazo[4,5-b]pyridine-2-yl)-2,5-dimethyl-1H-pyrrol-1-yl)-N-(2-(dimethylamino)ethyl)-N-methylbenzamide] | 14 |  |  |  | 
COCCOc1ccc(Nc2c(Br)cnc3[nH]c(-c4cc(C)n(-c5cccc(S(N)(=O)=O)c5)c4C)nc23)cc1 [Example 46, 3-(3-(6-bromo-7-((4-(2-methoxyethoxy)phenyl)amino)-3H-imidazo[4,5-b]pyridine-2-yl)-2,5-dimethyl-1H-pyrrol-1-yl)benzenesulfonamide] |  | > 50 | 10 to 50 | 10 to 50 | 
CCS(=O)(=O)N1CC[C@H](Nc2c(Br)cnc3[nH]c(-c4cc(C)n(-c5ccc6c(c5)OCO6)c4C)nc23)C1 [Example 49, (S)-2-(1-(benzo[d][1,3]dioxole-5-yl)-2,5-dimethyl-1H-pyrrol-3-yl)-6-bromo-N-(1-(ethylsulfonyl)pyrrolidine-3-yl)-3H-imidazo[4,5-b]pyridine-7-amine] | 15 |  |  |  | 50
Cc1cc(-c2nc3ncc(Br)c(Nc4cccc(S(N)(=O)=O)c4)c3[nH]2)c(C)n1-c1ccccc1 [Example 43, 3-((6-bromo-2-(2,5-dimethyl-1-phenyl-1H-pyrrol-3-yl)-1H-imidazo[4,5-b]pyridine-7-yl)amino)benzenesulfonamide] | 85 | > 50 | 10 to 50 | 10 to 50 | 
